Results published in PubChem BioAssay (NCI).
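Dose response: 5 concentrations. Exposure: 48 h. Format: 96-well plates. Endpoint: linear interpolation; highest concentration if not reached. TGI denotes the concentration required for complete inhibition of growth.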

Key:
Experiment in all cases: NCI tumour cell line growth inhibition, 48 h
786-0 renal = test system: 786-0 renal
A498 renal = test system: A498 renal
A549 NSCLC = test system: A549 NSCLC
ACHN renal = test system: ACHN renal
BT-549 breast = test system: BT-549 breast
CAKI-1 renal = test system: CAKI-1 renal
CCRF-CEM leukemia = test system: CCRF-CEM leukemia
DU-145 prostate = test system: DU-145 prostate
EKVX NSCLC = test system: EKVX NSCLC
HCC-2998 colon = test system: HCC-2998 colon
HCT-116 colon = test system: HCT-116 colon
HCT-15 colon = test system: HCT-15 colon
HL-60(TB) leukemia = test system: HL-60(TB) leukemia
HOP-62 NSCLC = test system: HOP-62 NSCLC
HOP-92 NSCLC = test system: HOP-92 NSCLC
HS 578T breast = test system: HS 578T breast
HT29 colon = test system: HT29 colon
IGROV1 ovarian = test system: IGROV1 ovarian
K-562 leukemia = test system: K-562 leukemia
KM12 colon = test system: KM12 colon
LOX IMVI melanoma = test system: LOX IMVI melanoma
M14 melanoma = test system: M14 melanoma
MALME-3M melanoma = test system: MALME-3M melanoma
MCF7 breast = test system: MCF7 breast
MDA-MB-231 breast = test system: MDA-MB-231 breast
MDA-MB-435 = test system: MDA-MB-435
MDA-N = test system: MDA-N
MOLT-4 leukemia = test system: MOLT-4 leukemia
NCI-H226 lung = test system: NCI-H226 lung
NCI-H23 lung = test system: NCI-H23 lung
NCI-H460 lung = test system: NCI-H460 lung
NCI/ADR-RES ovarian = test system: NCI/ADR-RES ovarian
OVCAR-3 ovarian = test system: OVCAR-3 ovarian
OVCAR-4 ovarian = test system: OVCAR-4 ovarian
OVCAR-5 ovarian = test system: OVCAR-5 ovarian
OVCAR-8 ovarian = test system: OVCAR-8 ovarian
PC-3 prostate = test system: PC-3 prostate
RPMI-8226 leukemia = test system: RPMI-8226 leukemia
SF-295 CNS = test system: SF-295 CNS
SK-MEL-2 melanoma = test system: SK-MEL-2 melanoma
SK-MEL-28 melanoma = test system: SK-MEL-28 melanoma
SK-MEL-5 melanoma = test system: SK-MEL-5 melanoma
SK-OV-3 ovarian = test system: SK-OV-3 ovarian
SN12C renal = test system: SN12C renal
SNB-19 CNS = test system: SNB-19 CNS
SR leukemia = test system: SR leukemia
SW-620 colon = test system: SW-620 colon
T-47D breast = test system: T-47D breast
TK-10 renal = test system: TK-10 renal
U251 CNS = test system: U251 CNS
UACC-257 melanoma = test system: UACC-257 melanoma
UACC-62 melanoma = test system: UACC-62 melanoma
UO-31 renal = test system: UO-31 renal
COLO 205 colon = test system: COLO 205 colon
RXF 393 renal = test system: RXF 393 renal
SF-268 CNS = test system: SF-268 CNS
SF-539 CNS = test system: SF-539 CNS

SMILES: O=C(OCC1OC2OC(c3ccccc3)(n3ccc4c([N+](=O)[O-])ccnc43)OC2C1OC(=O)c1ccccc1)c1ccccc1 (centres undefined)
- TGI (786-0 renal): > 100 µM
- TGI (A498 renal): > 100 µM
- TGI (A549 NSCLC): > 100 µM
- TGI (ACHN renal): > 100 µM
- TGI (BT-549 breast): > 100 µM
- TGI (CAKI-1 renal): > 100 µM
- TGI (CCRF-CEM leukemia): > 100 µM
- TGI (DU-145 prostate): > 100 µM
- TGI (EKVX NSCLC): > 100 µM
- TGI (HCC-2998 colon): > 100 µM
- TGI (HCT-116 colon): > 100 µM
- TGI (HCT-15 colon): > 100 µM
- TGI (HL-60(TB) leukemia): > 100 µM
- TGI (HOP-62 NSCLC): > 100 µM
- TGI (HOP-92 NSCLC): > 100 µM
- TGI (HS 578T breast): > 100 µM
- TGI (HT29 colon): > 100 µM
- TGI (IGROV1 ovarian): > 100 µM
- TGI (K-562 leukemia): > 100 µM
- TGI (KM12 colon): > 100 µM
- TGI (LOX IMVI melanoma): > 100 µM
- TGI (M14 melanoma): > 100 µM
- TGI (MALME-3M melanoma): > 100 µM
- TGI (MCF7 breast): > 100 µM
- TGI (MDA-MB-231 breast): > 100 µM
- TGI (MDA-MB-435): > 100 µM
- TGI (MDA-N): > 100 µM
- TGI (MOLT-4 leukemia): > 100 µM
- TGI (NCI-H226 lung): > 100 µM
- TGI (NCI-H23 lung): > 100 µM
- TGI (NCI-H460 lung): > 100 µM
- TGI (NCI/ADR-RES ovarian): > 100 µM
- TGI (OVCAR-3 ovarian): > 100 µM
- TGI (OVCAR-4 ovarian): > 100 µM
- TGI (OVCAR-5 ovarian): > 100 µM
- TGI (OVCAR-8 ovarian): > 100 µM
- TGI (PC-3 prostate): > 100 µM
- TGI (RPMI-8226 leukemia): > 100 µM
- TGI (SF-295 CNS): > 100 µM
- TGI (SK-MEL-2 melanoma): > 100 µM
- TGI (SK-MEL-28 melanoma): > 100 µM
- TGI (SK-MEL-5 melanoma): > 100 µM
- TGI (SK-OV-3 ovarian): > 100 µM
- TGI (SN12C renal): > 100 µM
- TGI (SNB-19 CNS): > 100 µM
- TGI (SR leukemia): > 100 µM
- TGI (SW-620 colon): > 100 µM
- TGI (T-47D breast): > 100 µM
- TGI (TK-10 renal): > 100 µM
- TGI (U251 CNS): > 100 µM
- TGI (UACC-257 melanoma): > 100 µM
- TGI (UACC-62 melanoma): > 100 µM
- TGI (UO-31 renal): > 100 µM

SMILES: O=c1c2c([N+](=O)[O-])cccc2nc2[nH]c3ccccc3n12
- TGI (786-0 renal): > 75 µM
- TGI (A498 renal): > 75 µM
- TGI (A549 NSCLC): > 75 µM
- TGI (ACHN renal): 29 µM
- TGI (BT-549 breast): 51.1 µM
- TGI (CAKI-1 renal): 45 µM
- TGI (CCRF-CEM leukemia): > 75 µM
- TGI (COLO 205 colon): > 75 µM
- TGI (DU-145 prostate): > 75 µM
- TGI (EKVX NSCLC): > 75 µM
- TGI (HCC-2998 colon): 52.2 µM
- TGI (HCT-116 colon): > 75 µM
- TGI (HCT-15 colon): > 75 µM
- TGI (HL-60(TB) leukemia): > 75 µM
- TGI (HOP-62 NSCLC): > 75 µM
- TGI (HOP-92 NSCLC): 69 µM
- TGI (HS 578T breast): > 75 µM
- TGI (HT29 colon): > 75 µM
- TGI (IGROV1 ovarian): 37.1 µM
- TGI (K-562 leukemia): > 75 µM
- TGI (KM12 colon): > 75 µM
- TGI (LOX IMVI melanoma): > 75 µM
- TGI (M14 melanoma): > 75 µM
- TGI (MALME-3M melanoma): > 75 µM
- TGI (MCF7 breast): > 75 µM
- TGI (MDA-MB-231 breast): 31.7 µM
- TGI (MDA-MB-435): > 75 µM
- TGI (MDA-N): > 75 µM
- TGI (MOLT-4 leukemia): > 75 µM
- TGI (NCI-H226 lung): > 75 µM
- TGI (NCI-H23 lung): > 75 µM
- TGI (NCI-H460 lung): > 75 µM
- TGI (NCI/ADR-RES ovarian): > 75 µM
- TGI (OVCAR-3 ovarian): 70.3 µM
- TGI (OVCAR-4 ovarian): 23.9 µM
- TGI (OVCAR-5 ovarian): > 75 µM
- TGI (OVCAR-8 ovarian): 31 µM
- TGI (PC-3 prostate): > 75 µM
- TGI (RPMI-8226 leukemia): > 75 µM
- TGI (RXF 393 renal): 30.4 µM
- TGI (SF-268 CNS): 62 µM
- TGI (SF-295 CNS): > 75 µM
- TGI (SF-539 CNS): 25.3 µM
- TGI (SK-MEL-2 melanoma): 42.5 µM
- TGI (SK-MEL-28 melanoma): > 75 µM
- TGI (SK-MEL-5 melanoma): > 75 µM
- TGI (SK-OV-3 ovarian): 24.6 µM
- TGI (SN12C renal): > 75 µM
- TGI (SNB-19 CNS): > 75 µM
- TGI (SR leukemia): > 75 µM
- TGI (SW-620 colon): > 75 µM
- TGI (T-47D breast): 63.4 µM
- TGI (TK-10 renal): 51.6 µM
- TGI (U251 CNS): > 75 µM
- TGI (UACC-257 melanoma): > 75 µM
- TGI (UACC-62 melanoma): > 75 µM
